Experiment: Phase 1 single-ascending dose (Part 1): safety and tolerability in healthy adults
Assay type: in vivo, human
Method: This ongoing trial is a Phase 1 randomized, double-blind, placebo-controlled study in male and female healthy adult volunteers aged 18-55 years. All volunteers provided written, informed consent.
All volunteers were followed up for 4 weeks and safety and tolerability were continuously assessed throughout the study. All adverse events (AEs) were recorded from the time of consent to the completion visit and were graded using the DAIDS toxicity grading scale. Volunteers also underwent physical examinations, electrocardiograms, vital sign checks and clinical laboratory parameters (chemistry, haematology, urinalysis).

CCCCOc1nc(N)c2[nH]cc(Cc3ccc(CN4CCCC4)cc3)c2n1 [Compound 4]
1 (14) n (%): ↑ Cholesterol Grade 2 (laboratory abnormality) (single dose 1.25 mg fed) | ↑ LDL cholesterol Grade 2 (laboratory abnormality) (single dose 1.25 mg fed) | ↑ Triglycerides Grade 2 (laboratory abnormality) (single dose 1.25 mg fed) | ↓ Phosphate Grade 2 (laboratory abnormality) (single dose 1.25 mg fed)
3 (50.0%) n (%): subjects with contact dermatitis (AE) (single dose 1.8 mg)
1 (16.7%) n (%): ECG change from reference: QTcB (ms) [30; 60] (single dose 1.8 mg fasted) | lab toxicity: Amylase (U/L), upwards, Grade 1 (single dose 1.8 mg fasted) | lab toxicity: Cholesterol (mmol/L), upwards, Grade 1 (single dose 1.8 mg fasted) | lab toxicity: Creatine kinase (U/L), upwards, Grade 2 (single dose 1.8 mg fasted) | lab toxicity: Neutrophils, segmented (giga/L), downwards, Grade 2 (single dose 1.8 mg fasted) | lab toxicity: Sodium (mmol/L), upwards, Grade 2 (single dose 1.8 mg fasted)
5 (83.3%) n (%): lab toxicity: Triglycerides (mmol/L), upwards, Grade 1 (single dose 1.8 mg fasted)
2 (33) n (%): Back pain Grade 1 (treatment-emergent AE) (single dose 1.8 mg fasted) | Chills Grade 1 (treatment-emergent AE) (single dose 1.8 mg fasted) | Dizziness Grade 1 (treatment-emergent AE) (single dose 1.8 mg fasted)
1 (17) n (%): Headache Grade 2 (treatment-emergent AE) (single dose 1.8 mg fasted) | Hypertension Grade 1 (treatment-emergent AE) (single dose 1.8 mg fasted) | Hypertension Grade 2 (treatment-emergent AE) (single dose 1.8 mg fasted) | Myalgia Grade 1 (treatment-emergent AE) (single dose 1.8 mg fasted) | Oropharyngeal pain Grade 1 (treatment-emergent AE) (single dose 1.8 mg fasted) | Pyrexia Grade 1 (treatment-emergent AE) (single dose 1.8 mg fasted) | Pyrexia Grade 2 (treatment-emergent AE) (single dose 1.8 mg fasted) | URTI Grade 1 (treatment-emergent AE) (single dose 1.8 mg fasted)
5 (83) n (%): Any AE (treatment-emergent) (single dose 1.8 mg fasted)
2 (33.3%) n (%): subjects with Grade 2 treatment-related AEs (pyrexia, headache and hypertension) (single dose 1.8 mg) | lab toxicity: Lymphocytes (giga/L), downwards, Grade 4 (single dose 1.8 mg fasted) | lab toxicity: Platelets (giga/L), downwards, Grade 1 (single dose 1.8 mg fasted) | lab toxicity: Sodium (mmol/L), upwards, Grade 1 (single dose 1.8 mg fasted)
3 (50) n (%): Contact dermatitis Grade 1 (treatment-emergent AE) (single dose 1.8 mg fasted)
0 n (%): vital signs: Supine SBP (mmHg) Grade 1 (single dose 1.25 mg fed) | vital signs: Supine SBP (mmHg) Grade 2 (single dose 1.25 mg fed) | vital signs: Supine SBP (mmHg) Low (single dose 1.25 mg fed) | vital signs: Supine pulse (bpm) Low (single dose 1.25 mg fed) | ↑ AST Grade 3 (laboratory abnormality) (single dose 1.25 mg fed) | ↑ Amylase Grade 2 (laboratory abnormality) (single dose 1.25 mg fed) | ↑ Creatine kinase Grade 2 (laboratory abnormality) (single dose 1.25 mg fed) | ↑ Creatine kinase Grade 4 (laboratory abnormality) (single dose 1.25 mg fed) | ↑ Glucose Grade 2 (laboratory abnormality) (single dose 1.25 mg fed) | ↑ LDL cholesterol Grade 3 (laboratory abnormality) (single dose 1.25 mg fed) | ↑ Lipase Grade 2 (laboratory abnormality) (single dose 1.25 mg fed) | ↑ Pancreatic amylase Grade 2 (laboratory abnormality) (single dose 1.25 mg fed) | ↑ Potassium Grade 2 (laboratory abnormality) (single dose 1.25 mg fed) | ↑ Sodium Grade 2 (laboratory abnormality) (single dose 1.25 mg fed) | ↑ Triglycerides Grade 3 (laboratory abnormality) (single dose 1.25 mg fed) | ↓ Bicarbonate Grade 2 (laboratory abnormality) (single dose 1.25 mg fed) | ↓ GFR Grade 2 (laboratory abnormality) (single dose 1.25 mg fed) | ↓ Lymphocytes Grade 2 (laboratory abnormality) (single dose 1.25 mg fed) | ↓ Lymphocytes Grade 4 (laboratory abnormality) (single dose 1.25 mg fed) | ↓ Neutrophils Grade 2 (laboratory abnormality) (single dose 1.25 mg fed) | ECG actual value: Heart rate (bpm) Low (single dose 1.8 mg fasted) | ECG actual value: QRS (ms) High (single dose 1.8 mg fasted) | ECG actual value: QTcB (ms) ]450; 480] (single dose 1.8 mg fasted) | ECG actual value: QTcF (ms) ]450; 480] (single dose 1.8 mg fasted) | ECG change from reference: QTcF (ms) [30; 60] (single dose 1.8 mg fasted) | Headache Grade 1 (treatment-emergent AE) (single dose 1.8 mg fasted) | lab toxicity: Amylase (U/L), upwards, Grade 2 (single dose 1.8 mg fasted) | lab toxicity: Cholesterol (mmol/L), upwards, Grade 2 (single dose 1.8 mg fasted) | lab toxicity: Creatine kinase (U/L), upwards, Grade 1 (single dose 1.8 mg fasted) | lab toxicity: Creatine kinase (U/L), upwards, Grade 4 (single dose 1.8 mg fasted) | lab toxicity: Glucose (mmol/L), upwards, Grade 1 (single dose 1.8 mg fasted) | lab toxicity: Glucose (mmol/L), upwards, Grade 2 (single dose 1.8 mg fasted) | lab toxicity: LDL cholesterol (mmol/L, calculated), upwards, Grade 1 (single dose 1.8 mg fasted) | lab toxicity: LDL cholesterol (mmol/L, calculated), upwards, Grade 2 (single dose 1.8 mg fasted) | lab toxicity: LDL cholesterol (mmol/L, calculated), upwards, Grade 3 (single dose 1.8 mg fasted) | lab toxicity: Lymphocytes (giga/L), downwards, Grade 2 (single dose 1.8 mg fasted) | lab toxicity: Neutrophils, segmented (giga/L), downwards, Grade 1 (single dose 1.8 mg fasted) | lab toxicity: Triglycerides (mmol/L), upwards, Grade 2 (single dose 1.8 mg fasted)
Two: subjects with grade 1 increase in temperature around 12 hours after dosing (single dose 1.8 mg)
